Test results published in ChEMBL document CHEMBL4433266, “Design, synthesis and antimycobacterial activity of benzoxazinone derivatives and open-ring analogues: Preliminary data and computational analysis” (Bioorg Med Chem Lett, 2019).
Values after ≈ are worked out from the molar mass of the structure shown.

How the values were obtained:
[1] = tested on: Mycobacterium tuberculosis; test: Antimycobacterial activity against Mycobacterium tuberculosis H37Ra ATCC 25197 assessed as inhibition of bacterial cell growth incubated for 7 days by resazurin microtiter assay; format: functional; conditions: H37Ra ATCC 25197, 168 h
[2] = Cytotoxicity in African green monkey Vero cells assessed as reduction in cell viability incubated for 72 hrs by MTT assay; format: cell-based; conditions: chlorocebus sabaeus
[3] = Selectivity index, ratio of CC50 for African green monkey Vero cells to MIC for antimycobacterial activity against Mycobacterium tuberculosis H37Ra ATCC 25197; format: toxicity; conditions: read-out: Selectivity Index
[4] = tested on: Mycobacterium tuberculosis; test: Antimycobacterial activity against Mycobacterium tuberculosis H37Rv ATCC 27294 assessed as inhibition of bacterial cell growth incubated for 7 days by resazurin microtiter assay; format: functional; conditions: H37Rv ATCC 27294, 168 h

COC(=O)/C=C1\Nc2ccccc2OC1=O
MIC [1]: 18 µM (≈ 3.95 µg/mL)
CC50 at 72 h [2]: > 2.28 mM
selectivity ratio [3]: > 125
MIC [4]: 4.5 µM (≈ 0.986 µg/mL)

COC(=O)/C=C1\Nc2cc(Cl)ccc2OC1=O
MIC [1]: 63 µM (≈ 16 µg/mL)
CC50 at 72 h [2]: 1.63 mM
selectivity ratio [3]: 26
MIC [4]: 31 µM (≈ 7.86 µg/mL)

COC(=O)/C=C1\Nc2ccc(Cl)cc2OC1=O
MIC [1]: 7.9 µM (≈ 2 µg/mL)
CC50 at 72 h [2]: 1.6 mM
selectivity ratio [3]: 202
MIC [4]: 3.9 µM (≈ 0.989 µg/mL)

O=C1Oc2ccccc2N/C1=C\C(=O)c1ccccc1Cl
MIC [1]: 13 µM (≈ 3.9 µg/mL)
CC50 at 72 h [2]: 1.57 mM
selectivity ratio [3]: 118

O=C1Nc2ccccc2O/C1=C\c1ccccc1
MIC [1]: 270 µM (≈ 64.1 µg/mL)

O=C1Oc2ccccc2N/C1=C\C(=O)c1ccc(-c2ccccc2)cc1
MIC [1]: 12 µM (≈ 4.1 µg/mL)
CC50 at 72 h [2]: > 0.366 mM
selectivity ratio [3]: > 30

COC(=O)/C=C1\Nc2ccccc2OC1O (stereo unspecified)
MIC [1]: 289 µM (≈ 63.9 µg/mL)

COC(=O)/C=C1\Nc2ncccc2OC1=O
MIC [1]: > 217 µM

O=C1Oc2ccccc2N/C1=C\C(=O)c1c[nH]c2ccccc12
MIC [1]: 6.5 µM (≈ 1.98 µg/mL)
CC50 at 72 h [2]: > 1.64 mM
selectivity ratio [3]: > 250
MIC [4]: 3.3 µM (≈ 1 µg/mL)

O=C1Oc2ccccc2N/C1=C\C(=O)c1cccs1
MIC [1]: 7.3 µM (≈ 1.98 µg/mL)
CC50 at 72 h [2]: > 1.84 mM
selectivity ratio [3]: > 250
MIC [4]: 14.7 µM (≈ 3.99 µg/mL)

Cc1ccccc1C(=O)/C=C1\Nc2ccccc2OC1=O
MIC [1]: 14 µM (≈ 3.91 µg/mL)
CC50 at 72 h [2]: > 1.79 mM
selectivity ratio [3]: > 125

O=C1Nc2ccccc2O/C1=C\c1ccccc1Cl
MIC [1]: 238 µM (≈ 64.7 µg/mL)

Cc1ccc(C(=O)/C=C2\Nc3ccccc3OC2=O)cc1
MIC [1]: 14 µM (≈ 3.91 µg/mL)
CC50 at 72 h [2]: 1.65 mM
selectivity ratio [3]: 115

O=C1Oc2ccccc2N/C1=C\C(=O)N1CCOCC1
MIC [1]: 7.3 µM (≈ 2 µg/mL)
CC50 at 72 h [2]: 1.14 mM
selectivity ratio [3]: 155
MIC [4]: 7.3 µM (≈ 2 µg/mL)

COC(=O)/C=C1\Nc2cc(-c3ccccc3)ccc2OC1=O
MIC [1]: 145 µM (≈ 42.8 µg/mL)

O=C(NNC(=O)c1ccncc1)C(=O)Nc1ccccc1O
MIC [1]: 0.42 µM (≈ 0.126 µg/mL)
CC50 at 72 h [2]: 1.41 mM
selectivity ratio [3]: 3380
MIC [4]: 3.3 µM (≈ 0.991 µg/mL)

COC(=O)/C=C1/Oc2ccccc2NC1=O
MIC [1]: 291 µM (≈ 63.8 µg/mL)

O=C1Oc2ccccc2N/C1=C\C(=O)c1ccc(Cl)cc1
MIC [1]: 13 µM (≈ 3.9 µg/mL)
CC50 at 72 h [2]: 1.25 mM
selectivity ratio [3]: 94

O=C(NNC(=O)c1ccncc1)C(=O)Nc1ccc(Cl)cc1O
MIC [1]: 0.75 µM (≈ 0.251 µg/mL)
CC50 at 72 h [2]: 1.17 mM
selectivity ratio [3]: 1560
MIC [4]: 3.1 µM (≈ 1.04 µg/mL)

O=C1Oc2ccccc2N/C1=C\C(=O)c1ccccc1
MIC [1]: 15 µM (≈ 3.98 µg/mL)
CC50 at 72 h [2]: > 0.942 mM
selectivity ratio [3]: > 62

CN1C(=O)/C(=C/c2ccccc2Cl)Oc2ccccc21
MIC [1]: 224 µM (≈ 64 µg/mL)

COC(=O)/C=C1\Nc2cc3ccccc3cc2OC1=O
MIC [1]: > 238 µM

O=C1/C(=C/c2ccccc2)Oc2ccccc2N1Cc1ccccc1
MIC [1]: 196 µM (≈ 64.2 µg/mL)

O=C1Oc2ccccc2N/C1=C\C(=O)c1ccncc1
MIC [1]: 15 µM (≈ 3.99 µg/mL)
CC50 at 72 h [2]: > 1.88 mM
selectivity ratio [3]: > 125

Cc1cccc(C(=O)/C=C2\Nc3ccccc3OC2=O)c1
MIC [1]: 14 µM (≈ 3.91 µg/mL)
CC50 at 72 h [2]: > 1.79 mM
selectivity ratio [3]: > 125

COC(=O)CC1Nc2ccccc2OC1=O (stereo unspecified)
MIC [1]: 36 µM (≈ 7.96 µg/mL)
CC50 at 72 h [2]: 1.55 mM
selectivity ratio [3]: 43

O=C1/C(=C/c2ccccc2Cl)Oc2ccccc2N1Cc1ccccc1
MIC [1]: 177 µM (≈ 64 µg/mL)

O=C1Oc2ccccc2N/C1=C\C(=O)c1cccc(Cl)c1
MIC [1]: 13 µM (≈ 3.9 µg/mL)
CC50 at 72 h [2]: 1.61 mM
selectivity ratio [3]: 120

CN1C(=O)/C(=C/c2ccccc2)Oc2ccccc21
MIC [1]: 127 µM (≈ 31.9 µg/mL)

O=C(NNC(=O)c1ccncc1)C(=O)Nc1cc(Cl)ccc1O
MIC [1]: 0.37 µM (≈ 0.124 µg/mL)
CC50 at 72 h [2]: 1.2 mM
selectivity ratio [3]: 3320
MIC [4]: 3.1 µM (≈ 1.04 µg/mL)

NNC(=O)c1ccncc1 [ISONIAZID]
MIC [1]: 0.91 µM (≈ 0.125 µg/mL)
CC50 at 72 h [2]: > 7.3 mM
selectivity ratio [3]: > 8000
MIC [4]: 1.8 µM (≈ 0.247 µg/mL)
